# Laboratory results taken from a melting point compilation (Tetko et al.; mined from patent text by program, amines drawn as free bases though some values may be those of a salt).
row,SMILES,melting point
1,COc1ccc(-c2nc(Sc3ncccn3)[nH]c2-c2ccc(OC)cc2)cc1,86 °C
2,C[C@H]1C[C@@](O)(c2cccc(S(=O)(=O)c3ccc4c(c3F)CCC(=O)N4C)c2)CCO1,149 to 151 °C
3,Cc1cccc(NC(=O)c2cc([N+](=O)[O-])ccc2NC(=O)CF)c1C,236 to 239 °C
4,COC(=O)c1ccc2cc(C(=O)c3cc(O)c4c(c3)C(C)(C)CCC4(C)C)ccc2c1,222 °C
5,CCOCc1nc2c(N)nc3cccnc3c2n1CC(C)(C)O,157 to 159 °C
6,CCn1c(=O)c(CC(=O)O)cc2ccc(O)cc21,226 to 229 °C
7,CC(C)(C)NC(=O)Nc1nc2nc(N)ncc2cc1-c1cccc(Cl)c1Cl,356 to 358 °C
8,CCOc1c(C(C)=O)cnc2c1cnn2Cc1ccco1,139 to 141 °C
9,CCCOc1ccc(F)c2c(=O)c3ccccc3sc12,125 to 127 °C
10,Cc1oc(-c2ccc(C(F)(F)F)cc2)nc1CC#N,85 to 86 °C
11,Clc1ccc(-c2cc(C3CCN(CC4CC4)CC3)n[nH]2)cc1,176 to 178 °C
12,CC1=C(Cc2ccc(OC(F)(F)F)cc2)C(=O)c2ccccc2C1=O,64 to 65 °C
13,COC(=O)c1cc2cc([N+](=O)[O-])cc(O)c2o1,252 to 253 °C
14,O=[N+]([O-])c1cccc(C(O)C(Cl)(Cl)Cl)c1 (centres undefined),91 to 95 °C
15,COc1ccc(COc2cccc(C=C(C=O)C(C=O)=Cc3cccc(OCc4ccc(OC)cc4)c3)c2)cc1,117 to 119 °C
16,COc1ccc2c(c1)c(C)c(CCCO)n2Cc1ccc(Cl)cc1,118 °C
17,O=C(CON1C(=O)c2ccccc2C1=O)OC(c1ccccc1)c1ccccc1,173 to 175 °C
18,Clc1cc(CC(Cl)(Cl)Cl)cnc1Cl,98 to 99 °C
19,Cc1nc(-n2cnn(CC3CC3(F)F)c2=O)sc1C(=O)NCc1cccnc1 (centres undefined),160 to 161 °C
20,CCOc1nc2c(nc1C(=O)Nc1nccs1)c(C)nn2CC,158 to 159 °C

row,SMILES,melting point
1,CCCCCCCCCCCCCCCCNc1ccc(C(=O)NS(=O)(=O)C(F)(F)F)cc1,172 to 174 °C
2,CCCc1cn(C)cc(-c2cccc(C(F)(F)F)c2)c1=O,45 to 47 °C
3,CCC1Cc2cc(OCC(=O)O)c(Cl)c(Cl)c2C1=O (centres undefined),171 to 172 °C
4,COc1ccc2c(c1)C(C)(C)NC(=O)O2,178 to 180 °C
5,CC1(C)OC(=O)c2ccc(CO)cc21,59 to 63 °C
6,COc1cccc(CNc2ncnc3c2sc2nc(N(C)C)c4c(c23)C(C)(C)CC4)c1OC,91.9 to 93.6 °C
7,COC(=O)Cn1nnc(-c2ccc(C=Cc3ccc(-c4nc5ccccc5o4)cc3)cc2)c1C#N,248 to 249 °C
8,CCOP(=O)(Cc1cccc(NC(=O)C2=Cc3cc(C4CCCCC4)ccc3CC2)c1)OCC,54 to 56 °C
9,CCCC1c2c(ccc(C(C)=O)c2O)OC1CSc1ccc(C(=O)CCC(=O)O)cc1 (centres undefined),110 to 112 °C
10,COc1cc(/C=C2/C(=O)NC(=O)/C2=C/c2ccccc2)cc(OC)c1OC,176 to 178 °C
11,COc1cc(C2C3=C(COC3=O)N(Cc3ccc([N+](=O)[O-])cc3)c3cc4c(cc32)OCO4)cc(OC)c1OC (centres undefined),240 °C
12,O=c1c2cc(F)c(F)cc2n(-c2ccc(F)c(Cl)c2)c(=O)n1OCc1ccccc1,184 to 186 °C
13,NS(=O)(=O)c1c(Cl)cccc1-c1ccccc1Cl,151 to 153 °C
14,O=C(NCCCn1cncn1)c1ccc(I)cc1,132 to 134 °C
15,COC(=O)c1cc(C(=O)Cl)cc([N+](=O)[O-])c1,66 to 68 °C
16,NN(CCO)C(=O)Nc1ccc(Cl)cc1,141 to 142 °C
17,CN(C(C)(C)CC(=O)Oc1ccccc1C(C)(C)C)S(=O)(=O)C(F)(F)F,42 to 44 °C
18,COc1c(Cl)ccc(-c2cc(N)c(Cl)c(C(=O)NOCc3ccc(Cl)cc3)n2)c1F,177 to 180 °C
19,CC(C)(C)OC(=O)N1CC=C(C2=C(C#N)C(c3cccc4nonc34)c3c[nH]nc3N2)CC1 (centres undefined),222 °C
